Structures are written as SMILES. Calls of active or inactive are those of the source. No cut-off for these calls is given here. Bounds are passed on as bounds.

The subject of data set [1] is Hepatitis B virus. Description: Antiviral activity against Hepatitis B virus in human HepAD38 cells assessed as inhibition of extracellular viral replication at 10 uM incubated for 2 days followed by 3 day incubation with fresh medium containing compound for 72 hrs by qRT-PCR analysis. Format: functional. (In general: Real-time PCR tracks product formation cycle by cycle.)

Data set [2] has as its system Hepatitis B virus. Description: Antiviral activity against Hepatitis B virus in human HepAD38 cells assessed as inhibition of extracellular viral replication incubated for 2 days followed by 3 day incubation with fresh medium containing compound for 72 hrs by qRT-PCR analysis. It counts as functional, organism-based.
Data set [3] is described as follows: Selectivity index, ratio of CC50 for human HepAD38 cells to EC50 for Hepatitis B virus. Format: toxicity, cell-based. Particulars: read-out: Ratio CC50/EC50.
Data set [4] in a line: Cytotoxicity against human HepAD38 cells after 7 days by MTT assay. It counts as cell-based. In general terms: Tetrazolium assays rely on reduction of a dye to a coloured formazan, in cell work by metabolically active cells.
Data set [5] relates to Hepatitis B virus. As to the kind of experiment: Antiviral activity against Hepatitis B virus in human HuH7 cells assessed as reduction in HBeAg secretion incubated for 2 days followed by 3 day incubation with fresh medium containing compound for 7 days by time-resolved fluoro-immunoassay. It counts as functional, organism-based. The following applies: Huh-7.
Data set [6] concerns Hepatitis B virus. Description: Antiviral activity against Hepatitis B virus in human HuH7 cells assessed as reduction in HBeAg secretion at 25 uM incubated for 2 days followed by 3 day incubation with fresh medium containing compound for 7 days by time-resolved fluoro-immunoassay. Format: functional, organism-based. Particulars: Huh-7.
The subject of data set [7] is Hepatitis B virus. Description: Effect on transcription level in Hepatitis B virus assessed as pgRNA level in human HuH7 cells after 48 hrs by qRT-PCR analysis. Format: functional, organism-based. Particulars: Huh-7.
The test system of data set [8] is Hepatitis B virus. Description: Antiviral activity against Hepatitis B virus in human HuH7 cells assessed as reduction in HBsAg secretion at 25 uM incubated for 2 days followed by 3 day incubation with fresh medium containing compound for 7 days by time-resolved fluoro-immunoassay. Format: functional, organism-based. The following applies: Huh-7.
Data set [9] relates to Hepatitis B virus. As to the kind of experiment: Antiviral activity against Hepatitis B virus in human HuH7 cells assessed as inhibition of intracellular viral replication at 2.5 and 25 uM after 48 hrs by qRT-PCR analysis. Format: functional, organism-based. Particulars: Huh-7.

Turning to `O=c1[nH]c(SCCOc2ccc(Br)cc2)nc(Cn2nnc3ccccc32)c1I`, the inhibition at 10 µM in the data set on Hepatitis B virus [1] amounted to 31%.
As for `Cc1ccc(OCCSc2nc(Cn3nnc4ccccc43)c(I)c(=O)[nH]2)cc1`, the inhibition at 10 µM with Hepatitis B virus [1] is 35%.
As for `COc1cc(CSc2nc(Cn3nnc4ccccc43)c(I)c(=O)[nH]2)cc(OC)c1`, the concentration giving a half-maximal response (EC50) in the data set on Hepatitis B virus [2] was 12.2 µM. For the same molecule, the selectivity ratio in data set [3] came out at 12. Moreover, the inhibition at 10 µM in the data set with Hepatitis B virus [1] is 59%. In addition, it took 146 µM to reach half-maximal cytotoxicity in data set [4] (CC50 at 168 h).
Regarding `Cc1cc(C)cc(Cc2nc(SCCOc3ccc([N+](=O)[O-])cc3)[nH]c(=O)c2I)c1`, the inhibition at 10 µM in the data set on Hepatitis B virus [1] is 20%.
With `O=c1[nH]c(SCCOc2ccc([N+](=O)[O-])cc2)nc(Cn2nnc3ccccc32)c1I`, in the data set with Hepatitis B virus [5], the Activity entry was “Dose-dependent effect”. Moreover, in the data set with Hepatitis B virus [2], the EC50 came out at 0.469 µM. For the same molecule, the result in the data set with Hepatitis B virus [6], in the data set on Hepatitis B virus [8] and in the data set on Hepatitis B virus [9] was Active. Besides, in the data set with Hepatitis B virus [7], the outcome was inactive. In data set [3], the selectivity ratio was determined as 111. In addition, the inhibition at 10 µM with Hepatitis B virus [1] was determined as 74%. Further, the CC50 at 168 h in data set [4] was determined as 52 µM.
Turning to `COc1ccc(Cc2nc(SC3CCCCCC3)[nH]c(=O)c2I)cc1OC`, the EC50 in the data set on Hepatitis B virus [2] was found to be 40.8 µM. In addition, in [3], the selectivity ratio came out at 2.4. Besides, the inhibition at 10 µM with Hepatitis B virus [1] amounted to 31%. Besides, it took 98 µM to reach half-maximal cytotoxicity in data set [4] (CC50 at 168 h).
Consider `COc1ccc(Cc2nc(SCCOc3ccc([N+](=O)[O-])cc3)[nH]c(=O)c2I)cc1OC`, for which the inhibition at 10 µM in the data set on Hepatitis B virus [1] came out at 6%.
On the same count and under the same terms, with `O=c1[nH]c(SCc2ccc(I)cc2)nc(Cn2nnc3ccccc32)c1I` the figure was 34%.
As to `O=c1[nH]c(SCc2ccc([N+](=O)[O-])cc2)nc(Cc2ccccc2)c1I`, the inhibition result in the data set with Hepatitis B virus [1] was “inactive”.
On to `COc1ccc(Cc2nc(SCCOc3ccc(C)cc3)[nH]c(=O)c2I)cc1OC`, for which the inhibition at 10 µM in the data set on Hepatitis B virus [1] worked out at 49%.
Take `O=c1[nH]c(SCc2ccc([N+](=O)[O-])cc2)nc(Cc2cc(F)cc(F)c2)c1I`: in the data set with Hepatitis B virus [1], the inhibition at 10 µM came to 47%.
`N#Cc1ccc(CSc2nc(Cc3ccccc3)c(I)c(=O)[nH]2)cc1`: the inhibition at 10 µM in the data set on Hepatitis B virus [1] was 63%.
On the same count and under the same terms, with `O=c1[nH]c(SCCOc2ccc([N+](=O)[O-])cc2)nc(Cc2ccccc2)c1I` the figure was 13%; with `Cc1cc(C)cc(Cc2nc(SCc3ccc([N+](=O)[O-])cc3)[nH]c(=O)c2I)c1`, 25%; with `Cc1cc(C)cc(Cc2nc(SCc3ccc(C#N)cc3)[nH]c(=O)c2I)c1`, 33%.
Still for that read-out and setting: with `N#Cc1ccc(CSc2nc(Cc3cc(F)cc(F)c3)c(I)c(=O)[nH]2)cc1` the figure was 14%.
Take `COc1ccc(Cc2nc(SCc3ccc(C#N)cc3)[nH]c(=O)c2I)cc1OC`: the EC50 in the data set with Hepatitis B virus [2] came to 4.84 µM. For the same molecule, the selectivity ratio in [3] is 19. Moreover, in the data set on Hepatitis B virus [1], the inhibition at 10 µM was determined as 67%. The molecule also had a CC50 at 168 h in data set [4] of 92 µM.
Turning to `COc1ccc(Cc2nc(SC3C=CCCC3)[nH]c(=O)c2I)cc1OC` (configuration not stated), the inhibition at 10 µM in the data set with Hepatitis B virus [1] stood at 52%.
On to `COc1ccc(Cc2nc(SCCOc3ccc(Br)cc3)[nH]c(=O)c2I)cc1OC`, for which the inhibition result in the data set on Hepatitis B virus [1] is “inactive”.
Consider `COc1ccc(Cc2nc(SCc3ccc([N+](=O)[O-])cc3)[nH]c(=O)c2I)cc1OC`, for which, in the data set with Hepatitis B virus [5], the Activity entry was “Dose-dependent effect”. In the data set on Hepatitis B virus [2], the EC50 was found to be 0.376 µM. In addition, the outcome with Hepatitis B virus [6], in the data set with Hepatitis B virus [8] and in the data set with Hepatitis B virus [9] was Active. Moreover, the result with Hepatitis B virus [7] was inactive. For the same molecule, in [3], the selectivity ratio stood at 330. For the same molecule, the inhibition at 10 µM with Hepatitis B virus [1] came to 81%. The CC50 at 168 h in data set [4] is 124 µM.
Take `COc1ccc(Cc2nc(SCc3ccc(C(F)(F)F)cc3)[nH]c(=O)c2I)cc1OC`: the inhibition at 10 µM in the data set on Hepatitis B virus [1] was found to be 54%.
Still for that read-out and setting: with `O=c1[nH]c(SCc2ccc([N+](=O)[O-])cc2)nc(Cn2nnc3ccccc32)c1I` the figure was 49%.
Take `O=c1[nH]c(SCc2ccc(C(F)(F)F)cc2)nc(Cn2nnc3ccccc32)c1I`: the inhibition result with Hepatitis B virus [1] was “inactive”.
The same measure, in the same setting: then `COc1cccc(CSc2nc(Cc3ccc(OC)c(OC)c3)c(I)c(=O)[nH]2)c1`, with “inactive”.
Consider `COc1ccc(Cc2nc(SCc3cccc(Cl)c3)[nH]c(=O)c2I)cc1OC`, for which, in the data set with Hepatitis B virus [2], the EC50 came out at 4.28 µM. Also, the selectivity ratio in data set [3] was found to be 27.8. Further, in the data set with Hepatitis B virus [1], the inhibition at 10 µM amounted to 65%. The same molecule displayed a 50% cytotoxic concentration (CC50) at 168 h in data set [4] of 119 µM.
Regarding `COc1ccc(Cc2nc(SCc3ccccc3[N+](=O)[O-])[nH]c(=O)c2I)cc1OC`, the inhibition at 10 µM in the data set on Hepatitis B virus [1] is 62%.
Take `Nc1ccn([C@H]2CS[C@@H](CO)O2)c(=O)n1`: the EC50 in the data set on Hepatitis B virus [2] came out at 0.731 µM. In addition, in data set [3], the selectivity ratio is above 137. Moreover, the inhibition at 10 µM in the data set with Hepatitis B virus [1] is 88%. Further, in [4], the CC50 at 168 h is above 100 µM.
Turning to `COc1cc(CSc2nc(Cc3ccc(OC)c(OC)c3)c(I)c(=O)[nH]2)cc(OC)c1`, in the data set on Hepatitis B virus [1], the inhibition at 10 µM amounted to 41%.
As for `N#Cc1ccc(CSc2nc(Cn3nnc4ccccc43)c(I)c(=O)[nH]2)cc1`, in the data set on Hepatitis B virus [1], the inhibition at 10 µM came to 27%.
For `COc1ccc(Cc2nc(SCc3ccc(I)cc3)[nH]c(=O)c2I)cc1OC`, the inhibition at 10 µM in the data set on Hepatitis B virus [1] turned out to be 17%.
On the same count and under the same terms, with `O=c1[nH]c(SCCOc2ccc([N+](=O)[O-])cc2)nc(Cc2cc(F)cc(F)c2)c1I` the figure was 9%.

As usually defined, the inhibition is the change of the read-out against control, counted positive when it falls. In general, EC50 refers to the concentration giving half of the maximal effect. A word on the CC50: it is the concentration giving 50% cytotoxicity. A low value points to harm at low concentration.

(Values after ChEMBL document CHEMBL3758143, “5-Iodo-2-arylalkylthio-6-aryl pyrimidin-4(3H)-ones as non-nucleoside anti-HBV agents” (Medchemcomm, 2015).)
